Like-named read-outs stand apart in the source and are kept apart here.
Assays:
[1] = molecular target: T1, Porcine PDH E1 (Sus scrofa, UniProt P29804); assay: Porcine PDH E1 inhibitory activity assay (DCPIP reduction); assay type: biochemical; conditions: for % Inhibition (5:1): [Compound] = 250 μM, [TPP] = 50 μM; for inhibition at 250 µM: [Compound] = [TPP] = 250 μM, read-out: % Inhibition (1:1); for vs TPP: affinity of the compound relative to that of TPP (= [TPP]/IC50) / IC50: [TPP] = 60 µM; for IC50: read-out: IC50 (μM ± SEM); for Ki: calculated from KM(TPP) 0.05 µM using [TPP]/IC50 = KM(TPP)/KI
T1 sequence (P29804 31-390): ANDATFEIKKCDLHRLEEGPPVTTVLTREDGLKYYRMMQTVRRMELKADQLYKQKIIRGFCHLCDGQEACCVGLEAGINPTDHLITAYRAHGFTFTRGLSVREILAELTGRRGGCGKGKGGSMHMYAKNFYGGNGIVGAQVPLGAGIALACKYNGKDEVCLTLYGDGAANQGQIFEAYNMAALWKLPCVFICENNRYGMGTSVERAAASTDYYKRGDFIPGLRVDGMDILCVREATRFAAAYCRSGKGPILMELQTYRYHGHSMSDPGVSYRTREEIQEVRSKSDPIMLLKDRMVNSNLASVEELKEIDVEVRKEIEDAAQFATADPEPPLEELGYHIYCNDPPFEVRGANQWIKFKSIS
Method: Porcine PDH E1 was purchased from Sigma. Porcine PDH E1 activity was determined by monitoring 2,6-dichlorophenolindophenol (DCPIP) reduction at 600 nm using a microplate reader (CLARIOstar) and conducted as described[5] with some modifications. […] The reaction buffer (50 mM KH2PO4 and 1 mM MgCl2, pH 7) contained thiamine pyrophosphate (TPP) at specified concentrations, 0.25 mM DCPIP, and 2 mg/mL porcine PDH E1. The reaction mixture was preincubated at 37 °C with the inhibitor for 30 min, and then the reaction was initiated by adding pyruvate to a final concentration of 50 mM. To determine the half-maximal inhibitory concentration (IC50), the TPP concentration was set at 60 μM with varying inhibitor concentrations. Specific activity was calculated using the molar extinction coefficient of DCPIP, 21 mM^–1 cm^–1.[28] The IC50 values were calculated from nonlinear regression curve fitting using GraphPad Prism.
Porcine PDH E1 inhibitory activity assay. Porcine PDH E1 was purchased from Sigma. Porcine PDH E1 activity was determined by monitoring 2,6-dichlorophenolindophenol (DCPIP) reduction at 600 nm using a microplate reader (CLARIOstar) and conducted as described3 with some modifications. The […]
buffer (50 mM KH2PO4 and 1 mM MgCl2, pH 7) contained thiamine pyrophosphate (TPP) at specified concentrations, 0.25 mM 2,6-dichlorophenolindophenol (DCPIP), and 2 mg/mL porcine PDH E1. The reaction mixture was preincubated at 37 °C with the inhibitor for 30 min, then reaction was initiated by adding pyruvate to a final concentration of 50 mM. To determine the half-maximal inhibitory concentration (IC50), TPP concentration was set at 60 µM with varying inhibitor concentrations. […]
values were calculated from non-linear regression curve fitting using GraphPad Prism. […]

[2] = molecular target: A. viridans PO (Aerococcus viridans, UniProt A9X9K8); assay: A. viridans PO inhibitory activity assay (quinoneimine dye); assay type: biochemical
Method: A. viridans PO and horseradish peroxidase were purchased from Sigma. A. viridans PO activity was determined by monitoring appearance of quinoneimine dye at 550 nm using a microplate reader (CLARIOstar) and conducted as described[5] with some modifications. […] The reaction buffer (50 mM KH2PO4 and 10 mM MgCl2, pH 5.9) contained TPP at specified concentrations, 10 μM flavin adenine dinucleotide, 0.15% 4-aminoantipyrine, 0.3% N-ethyl-N-(2-hydroxy-3-sulfopropyl)-m-toluidine (EHSPT), 50 μg/mL horseradish peroxidase, and 0.35 U/mL A. viridans PO. The reaction mixture was preincubated at 37 °C with inhibitor for 30 min, and then the reaction was initiated by adding pyruvate to a final concentration of 50 mM. To determine the IC50, TPP concentration was set at 60 μM with varying inhibitor concentrations. One unit of PO activity is defined as the production of 1 μmol of hydrogen peroxide per minute. The IC50 values were calculated from nonlinear regression curve fitting using GraphPad Prism.
Enzyme inhibitory activity assays – methods and results (Figures S1-4) […]
The compound […]
A. viridans PO inhibitory activity assay. A. viridans PO and horseradish peroxidase were purchased from Sigma. A. viridans PO activity was determined by monitoring appearance of quinoneimine dye at 550 nm using a microplate reader (CLARIOstar) and conducted as described3 with some modifications. […]
buffer (50 mM KH2PO4 and 10 mM MgCl2, pH 5.9) contained TPP at specified concentrations, 10 µM flavin adenine dinucleotide (FAD), 0.15% 4-aminoantipyrine, 0.3% N-ethyl-N-(2-hydroxy-3-sulfopropyl)-m-toluidine (EHSPT), 50 µg/mL horseradish peroxidase and 0.35 U/mL A. viridans PO. The reaction mixture was preincubated at 37 °C with inhibitor for 30 min, then reaction was initiated by adding pyruvate to a final concentration of 50 mM. To determine the IC50, TPP concentration was set was set at 60 µM with varying inhibitor concentrations. One unit of PO activity is defined as the production of 1 μmol of hydrogen peroxide per minute. The IC 50 values were calculated from non-linear regression curve fitting using GraphPad Prism. […]

[3] = [Compound] = 250 μM, [TPP] = 50 μM
[4] = [Compound] = [TPP] = 250 μM; read-out: % Inhibition (1:1)
[5] = [TPP] = 60 µM; read-out: IC50 (μM ± SEM)
[6] = calculated from KM(TPP) 5 µM using [TPP]/IC50 = KM(TPP)/KI; read-out: KI
[7] = calculated from KM(TPP) 5 µM using [TPP]/IC50 = KM(TPP)/KI
[8] = read-out: IC50 (μM ± SEM); [TPP] = 60 µM

Chain of A. viridans PO (A9X9K8 entry or part of it): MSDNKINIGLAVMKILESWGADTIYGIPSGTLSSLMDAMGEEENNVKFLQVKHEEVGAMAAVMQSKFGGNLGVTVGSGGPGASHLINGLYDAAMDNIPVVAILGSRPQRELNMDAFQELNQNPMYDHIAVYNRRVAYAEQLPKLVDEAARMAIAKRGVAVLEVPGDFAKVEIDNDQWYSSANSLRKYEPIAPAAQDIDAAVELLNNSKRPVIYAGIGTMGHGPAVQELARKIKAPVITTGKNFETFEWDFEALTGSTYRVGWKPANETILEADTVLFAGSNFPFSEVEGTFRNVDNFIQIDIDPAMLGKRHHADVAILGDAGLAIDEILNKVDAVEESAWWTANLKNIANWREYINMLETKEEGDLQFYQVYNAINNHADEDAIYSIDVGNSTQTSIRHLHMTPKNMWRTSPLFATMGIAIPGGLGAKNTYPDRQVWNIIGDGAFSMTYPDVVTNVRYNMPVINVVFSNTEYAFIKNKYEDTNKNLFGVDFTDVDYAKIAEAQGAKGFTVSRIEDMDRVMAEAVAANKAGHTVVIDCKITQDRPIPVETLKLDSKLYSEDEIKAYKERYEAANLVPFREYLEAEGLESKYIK

Row | SMILES | % Inhibition (5:1) [1] [%] | inhibition at 250 µM [1] [%] | vs TPP: affinity of the compound relative to that of TPP (= [TPP]/IC50) [1] | IC50 [1] [µM] | Ki [1] [µM] | % Inhibition (5:1) [2, 3] [%] | inhibition at 250 µM [2, 4] [%] | vs TPP: affinity of the compound relative to that of TPP (= [TPP]/IC50) ([2]; [TPP] = 60 µM) | IC50 [2, 5] [µM] | Ki [2, 6] [µM] | Ki [2, 7] [µM] | IC50 [2, 8] [µM]
1 | COC(=O)C(CCCc1cn(Cc2cnc(C)nc2N)nn1)C(=O)OC [13b] | 81 ± 4 | 48 ± 3 | 0.88 | 68 ± 9 | 0.057 | 65 ± 5 | 29 ± 4 | 0.39 | 152 ± 24 | 13 |  | 
2 | Cc1ncc(Cn2cc(CCCC(C(=O)[O-])C(=O)[O-])nn2)c(N)n1.[K+].[K+] [14b] | > 90 | 72 ± 3 | 2.4 | 25 ± 6 | 0.021 | 85 ± 4 | 55 ± 4 | 1.22 |  |  | 4.1 | 49 ± 7
3 | Cc1ncc(Cn2cc(CCCCC(=O)[O-])nn2)c(N)n1.[K+] [16b] | 77 ± 3 | 40 ± 3 | 0.65 | 92 ± 13 | 0.077 | 63 ± 3 | 28 ± 4 | 0.35 |  |  | 14 | 171 ± 29
4 | COC(=O)CCCc1cn(Cc2cnc(C)nc2N)nn1 [15a] | 65 ± 4 | 25 ± 4 | 0.36 | 167 ± 35 | 0.14 | 52 ± 3 | 21 ± 4 | 0.22 | 274 ± 52 | 23 |  | 
5 | Cc1ncc(Cn2cc(CCCC(=O)[O-])nn2)c(N)n1.[K+] [16a] | 75 ± 4 | 34 ± 3 | 0.54 | 111 ± 18 | 0.093 | 59 ± 3 | 22 ± 5 | 0.30 |  |  | 17 | 202 ± 34
6 | Cc1ncc(Cn2cc(CCC(C(=O)[O-])C(=O)[O-])nn2)c(N)n1.[K+].[K+] [14a] | > 90 | 62 ± 3 | 1.62 | 37 ± 6 | 0.031 | 76 ± 3 | 41 ± 3 | 0.69 |  |  | 7.3 | 87 ± 11
7 | COC(=O)CCCCc1cn(Cc2cnc(C)nc2N)nn1 [15b] | 71 ± 4 | 31 ± 3 | 0.48 | 126 ± 28 | 0.11 | 59 ± 3 | 24 ± 4 | 0.28 | 214 ± 31 | 18 |  | 
8 | COC(=O)C(CCc1cn(Cc2cnc(C)nc2N)nn1)C(=O)OC [13a] | 71 ± 3 | 36 ± 2 | 0.53 | 114 ± 15 | 0.095 | 62 ± 4 | 26 ± 4 | 0.32 | 189 ± 44 | 16 |  | 

Reference: paper PMC11483378, “Triazole-Based Thiamine Analogues as Inhibitors of Thiamine Pyrophosphate-Dependent Enzymes: 1,3-Dicarboxylate for Metal Binding” (ACS Omega, 2024)
